Measurements taken from patent US10669268B2, “Bicyclic derivatives” (Hoffmann-La Roche Inc., priority 2012, dated 2020).

Target: ATX (human His-tagged) (Homo sapiens (Human), UniProt Q13822)
Experiment: Human ATX enzyme inhibition assay (fluorescence quenching, MR121 substrate)
Format: biochemical
Details: 30 nM ATX, 1 μM MR121 substrate, 30° C., pH 8.0
Procedure, shortened: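 Tris-HCl buffer at pH 8.0 contained 140 mM NaCl, 5 mM KCl, 1 mM each CaCl2 and MgCl2, and 0.01% Triton X-100. The MR121 substrate (1 μM final) was incubated with enzyme for 15 min at 30 °C, and activity was read by fluorescence quenching.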

With `O=C(OCc1ccc(F)c(OC(F)(F)F)c1)N1C[C@@H]2CN(C(=O)c3ccc4[nH]nnc4c3)C[C@@H]2C1` [Example 4.28, (3aS,6aR)-5-(1H-benzotriazole-5-carbonyl)-hexahydro-pyrrolo[3,4-c]pyrrole-2-carboxylic acid 4-fluoro-3-trifluoromethoxy-benzyl ester] the IC50 was 123 nM.
`N#Cc1cc(F)cc(COC(=O)N2C[C@@H]3CN(C(=O)c4ccc5[nH]nnc5c4)C[C@@H]3C2)c1` [Example 4.29, (3aR,6aS)-3-cyano-5-fluorobenzyl 5-(1H-benzo[d][1,2,3]triazole-5-carbonyl)hexahydropyrrolo[3,4-c]pyrrole-2(1H)-carboxylate] gave an IC50 of 643 nM.
`COc1cc(Cl)cc(COC(=O)N2C[C@@H]3CN(C(=O)c4ccc5[nH]nnc5c4)C[C@@H]3C2)c1` [Example 4.30, (3aR,6aS)-3-chloro-5-methoxybenzyl 5-(1H-benzo[d][1,2,3]triazole-5-carbonyl)hexahydropyrrolo[3,4-c]pyrrole-2(1H)-carboxylate] showed an IC50 of 50 nM.
Work on `CC1C(COC(=O)N2C[C@@H]3CN(C(=O)c4ccc5[nH]nnc5c4)C[C@@H]3C2)[C@H]2CC[C@@H]1C2` (stereo partly drawn) [Example 4.31, (3aS,6aR)-5-(1H-benzotriazole-5-carbonyl)-hexahydro-pyrrolo[3,4-c]pyrrole-2-carboxylic acid (1S,4R)-3-methyl-bicyclo[2.2.1]hept-2-ylmethyl ester] yielded an IC50 of 1820 nM.
In the case of `O=C(OCC1C[C@H]2CC[C@@H]1C2)N1C[C@@H]2CN(C(=O)c3ccc4[nH]nnc4c3)C[C@@H]2C1` (stereo partly drawn) [Example 4.32, (3aS,6aR)-5-(1H-benzotriazole-5-carbonyl)-hexahydro-pyrrolo[3,4-c]pyrrole-2-carboxylic acid (1R,4S)-1-bicyclo[2.2.1]hept-2-ylmethyl ester], the IC50 is reported as 3850 nM.
`O=C(NCc1cnn[nH]1)[C@H]1C[C@@H]2CN(C(=O)OCc3cc(Cl)cc(Cl)c3)C[C@@H]2C1` [Example 4.33, (3aR,5s,6aS)-5-[(3H-[1,2,3]triazol-4-ylmethyl)-carbamoyl]-hexahydro-cyclopenta[c]pyrrole-2-carboxylic acid 3,5-dichloro-benzyl ester] was tested, and the IC50 was 36 nM.
`CS(=O)(=O)c1cc(Cl)cc(COC(=O)N2C[C@@H]3CN(C(=O)N4CCc5[nH]nnc5C4)C[C@H]3C2)c1` [Example 4.34, (3aS,6aS)-5-(1,4,6,7-tetrahydro-[1,2,3]triazolo[4,5-c]pyridine-5-carbonyl)-hexahydro-pyrrolo[3,4-c]pyrrole-2-carboxylic acid 3-chloro-5-methanesulfonyl-benzyl ester] showed an IC50 of 19 nM.
`O=C(OCc1ccc(OC(F)(F)C(F)F)cc1)N1C[C@@H]2CN(C(=O)c3ccc4[nH]nnc4c3)C[C@H]2C1` [Example 4.38, (3aS,6aS)-5-(1H-benzotriazole-5-carbonyl)-hexahydro-pyrrolo[3,4-c]pyrrole-2-carboxylic acid 4-(1,1,2,2-tetrafluoro-ethoxy)-benzyl ester] was tested, and the IC50 was 24 nM.
Compound `O=C(OCc1ccc(OC(F)F)c(F)c1)N1C[C@@H]2CN(C(=O)c3ccc4[nH]nnc4c3)C[C@H]2C1` [Example 4.39, (3aS,6aS)-5-(1H-benzotriazole-5-carbonyl)-hexahydro-pyrrolo[3,4-c]pyrrole-2-carboxylic acid 4-difluoromethoxy-3-fluoro-benzyl ester] has an IC50 of 6 nM.
In the case of `O=C(OCc1ccc(OC(F)(F)F)c(F)c1)N1C[C@@H]2CN(C(=O)c3ccc4[nH]nnc4n3)C[C@H]2C1` [Example 4.40, (3aS,6aS)-5-(1H-[1,2,3]triazolo[4,5-b]pyridine-5-carbonyl)-hexahydro-pyrrolo[3,4-c]pyrrole-2-carboxylic acid 3-fluoro-4-trifluoromethoxy-benzyl ester], the IC50 is reported as 16 nM.
`O=C(OCc1ccc(OC(F)F)cc1)N1C[C@@H]2CN(C(=O)c3ccc4[nH]nnc4c3)C[C@H]2C1` [Example 4.41, (3aS,6aS)-5-(1H-benzotriazole-5-carbonyl)-hexahydro-pyrrolo[3,4-c]pyrrole-2-carboxylic acid 4-difluoromethoxy-benzyl ester] was tested, and the IC50 was 9 nM.
Work on `O=C(OCc1ccc(OC(F)(F)F)cc1)N1C[C@@H]2CN(C(=O)c3ccc4[nH]nnc4n3)C[C@H]2C1` [Example 4.42, (3aS,6aS)-5-(1H-[1,2,3]triazolo[4,5-b]pyridine-5-carbonyl)-hexahydro-pyrrolo[3,4-c]pyrrole-2-carboxylic acid 4-trifluoromethoxy-benzyl ester] yielded an IC50 of 24 nM.
`O=C(OCc1ccc(OC(F)(F)F)c(F)c1)N1C[C@@H]2CN(C(=O)c3ccc4[nH]nnc4c3)C[C@H]2C1` [Example 4.43, (3aS,6aS)-5-(1H-benzotriazole-5-carbonyl)-hexahydro-pyrrolo[3,4-c]pyrrole-2-carboxylic acid 3-fluoro-4-trifluoromethoxy-benzyl ester] gave an IC50 of 4 nM.
`O=C(OCc1ccc(OCC(F)(F)F)cc1)N1C[C@@H]2CN(C(=O)c3ccc4[nH]nnc4c3)C[C@H]2C1` [Example 4.44, (3aS,6aS)-5-(1H-benzotriazole-5-carbonyl)-hexahydro-pyrrolo[3,4-c]pyrrole-2-carboxylic acid 4-(2,2,2-trifluoro-ethoxy)-benzyl ester] showed an IC50 of 6 nM.
`O=C(OCc1ccc(OC(F)(F)F)cn1)N1C[C@@H]2CN(C(=O)c3ccc4[nH]nnc4c3)C[C@H]2C1` [Example 4.45, (3aS,6aS)-5-(1H-benzotriazole-5-carbonyl)-hexahydro-pyrrolo[3,4-c]pyrrole-2-carboxylic acid 5-trifluoromethoxy-pyridin-2-ylmethyl ester] showed an IC50 of 7 nM.
With `CC(C)c1cc(C#N)ccc1COC(=O)N1C[C@@H]2CN(C(=O)[C@@H]3CCc4[nH]nnc4C3)C[C@H]2C1` [Example 4.46, (3aS,6aS)-5-((R)-4,5,6,7-tetrahydro-1H-benzotriazole-5-carbonyl)-hexahydro-pyrrolo[3,4-c]pyrrole-2-carboxylic acid 4-cyano-2-isopropyl-benzyl ester] the IC50 was 5 nM.
`Cc1cc(COC(=O)N2C[C@@H]3CN(C(=O)[C@@H]4CCc5[nH]nnc5C4)C[C@H]3C2)c(C(C)C)cc1C#N` [Example 4.47, (3aS,6aS)-5-((R)-4,5,6,7-tetrahydro-1H-benzotriazole-5-carbonyl)-hexahydro-pyrrolo[3,4-c]pyrrole-2-carboxylic acid 4-cyano-2-isopropyl-5-methyl-benzyl ester] gave an IC50 of 4 nM.
`O=C(OCc1ccc(OC(F)(F)F)cc1F)N1C[C@@H]2CN(C(=O)[C@@H]3CCc4[nH]nnc4C3)C[C@H]2C1` [Example 4.48, (3aS,6aS)-5-((R)-4,5,6,7-tetrahydro-1H-benzotriazole-5-carbonyl)-hexahydro-pyrrolo[3,4-c]pyrrole-2-carboxylic acid 2-fluoro-4-trifluoromethoxy-benzyl ester] showed an IC50 of 3 nM.
`O=C(OCc1ccc(OC(F)(F)F)cc1F)N1C[C@@H]2CN(C(=O)c3ccc4[nH]nnc4c3)C[C@H]2C1` [Example 4.49, (3aS,6aS)-5-(1H-benzotriazole-5-carbonyl)-hexahydro-pyrrolo[3,4-c]pyrrole-2-carboxylic acid 2-fluoro-4-trifluoromethoxy-benzyl ester] was tested, and the IC50 was 3 nM.
Compound `CC(C)c1cc(C#N)ccc1COC(=O)N1C[C@@H]2CN(C(=O)c3ccc4[nH]nnc4c3)C[C@H]2C1` [Example 4.52, (3aS,6aS)-5-(1H-benzotriazole-5-carbonyl)-hexahydro-pyrrolo[3,4-c]pyrrole-2-carboxylic acid 4-cyano-2-isopropyl-benzyl ester] has an IC50 of 10 nM.
Compound `Cc1cc(COC(=O)N2C[C@@H]3CN(C(=O)c4ccc5[nH]nnc5c4)C[C@H]3C2)c(C(C)C)cc1C#N` [Example 4.53, (3aS,6aS)-5-(1H-benzotriazole-5-carbonyl)-hexahydro-pyrrolo[3,4-c]pyrrole-2-carboxylic acid 4-cyano-2-isopropyl-5-methyl-benzyl ester] has an IC50 of 5 nM.
With `O=C(OCc1ccc(OC(F)(F)F)cc1)N1C[C@@H]2CN(C(=O)N3CCc4[nH]nnc4C3)C[C@H]2C1` [Example 4.54, (3aS,6aS)-5-(1,4,6,7-tetrahydro-[1,2,3]triazolo[4,5-c]pyridine-5-carbonyl)-hexahydro-pyrrolo[3,4-c]pyrrole-2-carboxylic acid 4-trifluoromethoxy-benzyl ester] the IC50 was 14 nM.
For `O=C(OCc1ccc(C(F)(F)F)cc1F)N1C[C@@H]2CN(C(=O)c3ccc4[nH]nnc4c3)C[C@H]2C1` [Example 4.56, (3aS,6aS)-5-(1H-benzotriazole-5-carbonyl)-hexahydro-pyrrolo[3,4-c]pyrrole-2-carboxylic acid 2-fluoro-4-trifluoromethyl-benzyl ester], the IC50 was 9 nM.
In the case of `O=C(OCc1ccc(C(F)(F)F)cc1)N1C[C@@H]2CN(C(=O)c3ccc4[nH]nnc4c3)C[C@H]2C1` [Example 4.57, (3aS,6aS)-5-(1H-benzotriazole-5-carbonyl)-hexahydro-pyrrolo[3,4-c]pyrrole-2-carboxylic acid 4-trifluoromethyl-benzyl ester], the IC50 is reported as 11 nM.
`O=C(OCc1ccc(OC(F)(F)F)cc1)N1C[C@@H]2CN(C(=O)[C@@H]3CCc4[nH]nnc4C3)C[C@H]2C1` [Example 4.58, (3aS,6aS)-5-((R)-4,5,6,7-tetrahydro-1H-benzotriazole-5-carbonyl)-hexahydro-pyrrolo[3,4-c]pyrrole-2-carboxylic acid 4-trifluoromethoxy-benzyl ester] was tested, and the IC50 was 5.2 nM.
`O=C(OCc1ccc(C(F)(F)F)cc1)N1C[C@@H]2CN(C(=O)[C@@H]3CCc4[nH]nnc4C3)C[C@H]2C1` [Example 4.59, (3aS,6aS)-5-((R)-4,5,6,7-tetrahydro-1H-benzotriazole-5-carbonyl)-hexahydro-pyrrolo[3,4-c]pyrrole-2-carboxylic acid 4-trifluoromethyl-benzyl ester] gave an IC50 of 9 nM.
